Reference: US20100330003A1, “ORAL CARE PRODUCT AND METHODS OF USE AND MANUFACTURE THEREOF” (Colgate-Palmolive Company, priority 2008, published 2010)

System: S. sanguis
Test: ammonia production by S. sanguis at pH 4.0 (Ammonia Assay kit)
Assay type: cell-based
Conditions: 5 millimolar amino acid, 0.1% sucrose, pH 4.0, 37° C., 30 minutes
Description: An overnight culture of S. sanguis is grown at 37° C. in trypticase soy broth (Becton Dickinson, Sparks, Md.). The culture is centrifuged at 5,000 rpm for 5 minutes at 1 milliliter at a time into preweighed tubes in order to accumulate approximately 5 milligrams of wet pellet weight. The pellet is then resuspended into 20 millimolar potassium phosphate buffer (JT Baker. Phillipsburg, N.J.), pH 4.0, to simulate a stressed environment for the bacterial cell where ammonia would be produced for survival. The final concentration is 5 milligram per milliliter. To this final concentration, a 5 millimolar final concentration of L-arginine, L-citrulline, or L-ornithine is added along with a 0.1% final concentration of sucrose (VWR, West Chester, Pa.). This mixture is then incubated at 37° C. in a shaking water bath for 30 minutes before ammonia production is determined.
In order to analyze for ammonia, an Ammonia Assay kit is used from Diagnostic Chemicals Limited (Oxford, Conn.). The intended use of this specific kit is for the in vitro quantification of ammonia in plasma, but the procedure is modified in order to determine and quantity the ammonia production in plaque and/or bacteria.

NC(=O)NCCC[C@H](N)C(=O)O [L-Citrulline, L-citrulline]
Ammonia (ppm) (Mean of 6 separate trials): 0.951 ppm | Ammonia (ppm) (Trial 1): 0.185 ppm | Ammonia (ppm) (Trial 2): 0.346 ppm | Ammonia (ppm) (Trial 3): 0.332 ppm | Ammonia (ppm) (Trial 4): 0.194 ppm | Ammonia (ppm) (Trial 5): 0.226 ppm | Ammonia (ppm) (Trial 6): 0.951 ppm

N=C(N)NCCC[C@H](N)C(=O)O [L-Arginine, L-arginine]
Ammonia (ppm) (Mean of 6 separate trials): 1.06 ppm | Ammonia (ppm) (Trial 1): 0.509 ppm | Ammonia (ppm) (Trial 2): 0.866 ppm | Ammonia (ppm) (Trial 3): 2.20 ppm | Ammonia (ppm) (Trial 4): 1.62 ppm | Ammonia (ppm) (Trial 5): 0.5 ppm | Ammonia (ppm) (Trial 6): 0.679 ppm

NCCC[C@H](N)C(=O)O [L-Ornithine, L-ornithine]
Ammonia (ppm) (Mean of 6 separate trials): 0.134 ppm | Ammonia (ppm) (Trial 1): 0.185 ppm | Ammonia (ppm) (Trial 2): 0.260 ppm | Ammonia (ppm) (Trial 3): 0.047 ppm | Ammonia (ppm) (Trial 4): 0.0 ppm | Ammonia (ppm) (Trial 5): 0.181 ppm | Ammonia (ppm) (Trial 6): 0.135 ppm
